From patent US4789667A, “External pharmaceutical composition and methods of use” (priority 1984, dated 1988)
Like-named read-outs stand apart in the source and are kept apart here.

Tests used:
[1] = Drug diffusion through egg shell membrane in diffusion cell with dodecyl L-pyroglutamate; details: control without enhancer = 100; drug 0.05%, dodecyl L-pyroglutamate 1.0% in donor side, 37° C
[2] = system: carrageenan-induced edema; experiment: Carrageenan-induced edema inhibiting effect of betamethasone valerate ointment; assay type: in vivo; details: rat paw, 0.15 part betamethasone valerate, 9.85 parts enhancer, vs gel ointment base
Experimental: The carrageenan-induced edema inhibiting effect of the ointment was examined in accordance with the method of E. Passarella [Arzneim, Forsch. 30 (I), No. 4, pages 647-651 (1980)]. Specifically, 0.1 ml of a 1% carrageenan suspension in 0.9% NaCl solution was injected into the tip of the right paw of each rat (body weight 150-175 g). The volume of the paw was measured before the administation of carrageenan and 3, 5 and 6 hours after the carrageenan administration by a mercury displacement device. The ointment was well rubbed into the inflamed site in an amount of 100 mg.
These ointments were applied to the tip of the paw, and their edema inhibiting effects were examined.
The percent edema inhibitions were calculated on the basis of the edema formation ratio of a rat to which only the gel ointment base was administered.

serum calcium level = assay type: in vivo
Experimental: This nasal drop contained 15 units/50 microliters of calcitonin. The nasal drop in a dose of 50 microliters was administered to the nasal cavity of a New Zealand rabbit (clean). The calcium concentration in the serum after administration was measured by using a calcium measuring kit (Iatoron Co.).
They were individually administered to the nasal cavity of a rabbit, and the concentration of calcium in the serum was measured.

| SMILES | Relative amount of permeation after 30 minutes [1] | Edema inhibition ([2]; 3 hrs.) [%] | Edema inhibition ([2]; 6 hrs.) [%] | Edema inhibition ([2]; 9 hrs.) [%] | Percent decrease of the serum calcium level from that before administration (serum calcium level; 1 h) [%] | Percent decrease of the serum calcium level from that before administration (serum calcium level; 2 h) [%] | Percent decrease of the serum calcium level from that before administration (serum calcium level; 3 h) [%] | Percent decrease of the serum calcium level from that before administration (serum calcium level; 5 h) [%] |
| --- | --- | --- | --- | --- | --- | --- | --- | --- |
| O=C(O)c1ccccc1O [Salicyclic acid] | 208 | – | – | – | – | – | – | – |
| CCCCCCCCCCCOC(=O)[C@@H]1CCC(=O)N1 [Compound (114), Undecyl L-pyroglutamate] | – | 20.2 | 38.5 | 37.3 | – | – | – | – |
| CCCCCCCOC(=O)[C@@H]1CCC(=O)N1 [Heptyl L-pyroglutamate] | – | 9.3 | 12.8 | 13.7 | – | – | – | – |
| CCCCCCCCCCOC(=O)C1CCC(=O)N1 (racemic) [Compound (102), Decyl DL-pyroglutamate] | – | 16.3 | 39.7 | 38.3 | – | – | – | – |
| CCCCCCCCCCCCCCCCCOC(=O)C1CCC(=O)N1 (racemic) [Heptadecyl DL-pyroglutamate] | – | 10.5 | 12.8 | 14.8 | – | – | – | – |
| CCCCCCCCCCCCOC(=O)C1CCC(=O)N1 (racemic) [Compound (106), Dodecyl DL-pyroglutamate] | – | 17.4 | 40.1 | 40.0 | – | – | – | – |
| C[C@]12CC[C@@H]3c4ccc(O)cc4CC[C@H]3[C@@H]1CC[C@@H]2O [Estradiol] | 203 | – | – | – | – | – | – | – |
| CCCCCCCCCCCCCCCCCCCCOC(=O)[C@@H]1CCC(=O)N1 [Eicosanyl L-pyroglutamate] | – | 9.3 | 10.5 | 15.6 | – | – | – | – |
| COC1=CC(=O)C[C@@H](C)[C@]12Oc1c(Cl)c(OC)cc(OC)c1C2=O [Griseofulvin] | 221 | – | – | – | – | – | – | – |
| CCCCC[C@H](O)/C=C/[C@@H]1[C@@H](C/C=C\CCCC(=O)O)[C@@H](O)C[C@H]1O [Prostaglandin F2] | 166 | – | – | – | – | – | – | – |
| CCCCCCCCCCCCCOC(=O)C1CCC(=O)N1 (racemic) [Compound (108), Tridecyl DL-pyroglutamate] | – | 18.8 | 35.3 | 38.1 | – | – | – | – |
| COc1ccc2c(c1)c(CC(=O)O)c(C)n2C(=O)c1ccc(Cl)cc1 [Indomethacin] | 220 | – | – | – | – | – | – | – |
| CC1(C)C2CCC1(C)C(OC(=O)[C@@H]1CCC(=O)N1)C2 (stereo partly drawn) [Compound (310), Bornyl L-pyroglutamate] | – | 17.0 | 39.4 | 40.2 | – | – | – | – |
| CCCCCCCCCCOC(=O)[C@@H]1CCC(=O)N1 [Compound (112), Decyl L-pyroglutamate] | – | 18.6 | 38.9 | 37.4 | – | – | – | – |
| CCCCCCCCCCCCCCCCCCOC(=O)C1CCC(=O)N1 (racemic) [Octadecyl DL-pyroglutamate] | – | 9.6 | 13.0 | 15.6 | – | – | – | – |
| CCCCCCCCCCCCCCCCCCOC(=O)[C@@H]1CCC(=O)N1 [Octadecyl L-pyroglutamate] | – | 10.0 | 11.4 | 14.4 | – | – | – | – |
| CN(C)CCCN1c2ccccc2Sc2ccc(Cl)cc21 [Chlorpromazine] | 124 | – | – | – | – | – | – | – |

| SMILES | Relative amount of permeation after 30 minutes [1] | Edema inhibition ([2]; 3 hrs.) [%] | Edema inhibition ([2]; 6 hrs.) [%] | Edema inhibition ([2]; 9 hrs.) [%] | Percent decrease of the serum calcium level from that before administration (serum calcium level; 1 h) [%] | Percent decrease of the serum calcium level from that before administration (serum calcium level; 2 h) [%] | Percent decrease of the serum calcium level from that before administration (serum calcium level; 3 h) [%] | Percent decrease of the serum calcium level from that before administration (serum calcium level; 5 h) [%] |
| --- | --- | --- | --- | --- | --- | --- | --- | --- |
| CCCCCCCCCCCCCCCCCCCCOC(=O)C1CCC(=O)N1 (racemic) [Eicosanyl DL-pyroglutamate] | – | 9.2 | 11.1 | 16.7 | – | – | – | – |
| CCCCCCCCCCCOC(=O)C1CCC(=O)N1 (racemic) [Compound (104), Undecyl DL-pyroglutamate] | – | 20.3 | 40.1 | 35.4 | – | – | – | – |
| C[C@](N)(Cc1ccc(O)c(O)c1)C(=O)O [Methyldopa] | 153 | – | – | – | – | – | – | – |
| CCC=CCCCCCCCCOC(=O)[C@@H]1CCC(=O)N1 [Compound (220), 9-Dodecenyl L-pyroglutamate] | – | 18.3 | 37.7 | 36.9 | – | – | – | – |
| CC1CCC(C(C)C)C(OC(=O)[C@@H]2CCC(=O)N2)C1 (stereo partly drawn) [Compound (308), Menthyl L-pyroglutamate] | – | 17.0 | 38.0 | 40.2 | – | – | – | – |
| CCCCCCCOC(=O)C1CCC(=O)N1 (racemic) [Heptyl DL-pyroglutamate] | – | 10.7 | 10.9 | 9.5 | – | – | – | – |
| CCCCCCCCCCCCCCOC(=O)[C@@H]1CCC(=O)N1 [Compound (120), Tetradecyl L-pyroglutamate] | – | 17.8 | 38.5 | 39.6 | – | – | – | – |
| CCOC(=O)[C@@H]1CCC(=O)N1 [Ethyl L-pyroglutamate] | – | 10.4 | 12.7 | 17.2 | – | – | – | – |
| CCCCCCCCCCCCCOC(=O)[C@@H]1CCC(=O)N1 [Compound (118), Tridecyl L-pyroglutamate] | – | 20.0 | 38.5 | 36.8 | – | – | – | – |
| CCOC(=O)C1CCC(=O)N1 (racemic) [Ethyl DL-pyroglutamate] | – | 9.5 | 10.2 | 12.1 | – | – | – | – |
| O=C1CCC(C(=O)O)N1 (racemic) [DL-Pyroglutamic acid] | – | 10.8 | 11.4 | 15.2 | 2.0 | 1.0 | 0 | 0 |
| CCCCCCOC(=O)C1CCC(=O)N1 (racemic) [Hexyl DL-pyroglutamate] | – | 11.2 | 11.5 | 11.0 | – | – | – | – |
| O=C1CC[C@@H](C(=O)O)N1 [L-Pyroglutamic acid] | – | 10.3 | 11.2 | 16.3 | 1.9 | 0.7 | 0 | 0 |
| CCCCCCCCCCCCCCCCCOC(=O)[C@@H]1CCC(=O)N1 [Heptadecyl L-pyroglutamate] | – | 11.2 | 10.6 | 16.5 | – | – | – | – |
| CCCCCCCCCCCCCCOC(=O)C1CCC(=O)N1 (racemic) [Compound (110), Tetradecyl DL-pyroglutamate] | – | 17.4 | 38.0 | 38.6 | – | – | – | – |
| CCCCCCOC(=O)[C@@H]1CCC(=O)N1 [Hexyl L-pyroglutamate] | – | 10.0 | 11.5 | 13.8 | – | – | – | – |
| CCCCCCCCCCCCOC(=O)[C@@H]1CCC(=O)N1 [Compound (116), Dodecyl L-pyroglutamate] | – | 19.8 | 40.2 | 40.3 | – | – | – | – |
